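48-hour exposure; five concentrations; linearly interpolated endpoints. Here, GI50 denotes the concentration required for 50% inhibition of growth. Definition used: TGI = concentration required for complete inhibition of growth.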
Assays:
Assay in all cases: NCI anticancer screen, dose series, 48 h
[1] = tested on: ACHN renal
[2] = tested on: BT-549 breast
[3] = tested on: HS 578T breast
[4] = tested on: K-562 leukemia
[5] = tested on: MCF7 breast
[6] = tested on: MOLT-4 leukemia
[7] = tested on: NCI-H522 lung
[8] = tested on: SF-295 CNS
[9] = tested on: SK-MEL-5 melanoma
[10] = tested on: SK-OV-3 ovarian

Compound	GI50 [1] [µM]	TGI [1] [µM]	GI50 [2] [µM]	TGI [2] [µM]	GI50 [3] [µM]	TGI [3] [µM]	GI50 [4] [µM]	TGI [4] [µM]	GI50 [5] [µM]	TGI [5] [µM]	GI50 [6] [µM]	TGI [6] [µM]	GI50 [7] [µM]	TGI [7] [µM]	GI50 [8] [µM]	TGI [8] [µM]	GI50 [9] [µM]	TGI [9] [µM]	GI50 [10] [µM]	TGI [10] [µM]
Cc1cc(CCl)c(C)cc1CCl	0.695	3.08	4.34	18.9	2.4	8.21	1.06	> 33.2	0.281	2.32	0.573	8.39	1.7	3.57	0.84	4.61	4.19	17.2	4.92	23
O=C(CC1(O)C(=O)Nc2ccc(F)cc21)c1ccc(C(=O)NCC2CCC3(CC2)OOC2(CCCCC2)OO3)cc1 (stereo not given)	2.89	10.7	12.6	34.6	11.4	47.4	3.49	21.9	8.23	29	3.72	28.8	1.21	2.71	3.69	16.2	3.69	14.4	14.1	31.9
COc1ccc(-c2c(C#N)c(N)nc(N3CCOCC3)c2C#N)cc1	20.2	> 100	20.9	> 100	17.5	64.4	34.5	> 100	21.6	98.9	27.7	> 100	8.65	43.6	15	50.1	19.1	45.9	4.99	27.3
C=C(CN1CCc2c([nH]c3ccccc23)C1)c1ccc(C(=O)Nc2ccccc2N)cc1	1.74	10.4	5.29	17.7	4.75	23.3	1.01	17	3.98	22.9	0.116	0.405	4.13	11.5	16.6	27.8	2.61	6.88	3.14	11.6
CC(C)(C)[Si](C)(C)OC1[C@@H](CNC(N)=O)O[C@@H](n2cnc3c(NC(=O)Nc4ccccc4)ncnc32)[C@H]1O[Si](C)(C)C(C)(C)C (stereo not given in full)	2.42	8.62	2.47	9.2	1.17	3.02	1.06	2.13	1.83	8.51	1.06	2.24	2.36	8.25	2.04	7.9	6.82	13.5	3.29	9.53
CCn1cc(/C=C2\Oc3cc(OCC#N)ccc3C2=O)c2cc(OC)ccc21	0.847	> 100	0.229	20.3	0.267	> 28.8	0.0888	> 100	0.209	> 100	0.187	> 100	2.46	28.5	0.221	20.7	0.204	4.17	1.7	> 78.5
O=C1/C(=C\c2ccco2)Oc2ccccc21	–	> 100	–	> 100	–	> 100	–	> 100	–	> 100	–	> 100	–	> 100	–	> 100	–	> 100	–	> 100
COc1cc(OCc2cccc(-c3ccccc3)c2C)cc(OC)c1CN1CCCCC1C(=O)NCCOCCOCCN (stereo not given)	3.43	13	11.5	24.7	1.93	4.56	1.86	4.4	1.92	3.92	2.08	5.79	1.88	4.08	2.03	4.23	1.76	3.21	10.7	24
Nc1nc(N)c2cc(Sc3ccc4ccccc4c3)ccc2n1	–	5.15	–	9	–	9.17	–	1.88	–	2.86	–	5.51	–	3.36	–	4.91	–	2.24	–	17.5
COc1ccc(C2=NC(=O)NC2c2ccc(OC)cc2)cc1 (stereo not given)	21.9	> 100	3.89	29.5	7.18	48.5	2.8	20.8	4.34	> 100	1.2	96.7	5.02	60.9	5.35	47.5	3.29	14.2	19.9	> 100
CCCN(CCC)c1ccc(C=O)c(Cl)c1	31.7	> 100	24	> 80.4	22.9	> 96.8	26.4	> 100	1.8	29.4	29.6	97.1	25.2	82.2	3.87	29.2	14.8	28.6	24.4	> 100
Cn1cc(-c2cc(-c3cn(C)c4ccc(Cl)cc34)[nH]n2)c2cc(Cl)ccc21	3.23	12.8	2.03	5.24	3.27	20	2.78	5.98	2.64	6.89	1.55	11.8	1.75	3.84	2.52	8.65	1.79	3.6	5.81	> 100
Nc1c(C(=O)c2cccc(C#CCN3CCCCC3)c2)cnn1-c1ccc(F)cc1	> 19.2	> 25	> 13.3	> 25	> 25	> 25	13.1	> 25	19.1	> 25	21.2	> 25	> 18.9	> 25	> 25	> 25	9.59	> 25	> 25	> 25

From PubChem BioAssay (NCI)
